Results: patent publication US7713994B2 (Wyeth LLC, priority 2005, dated 2010)
Where two headings read alike, the source gives them in different places.

Experiments:
BT474 = experiment: Cytotoxicity assay (SRB), BT474; type: cell-based; settings: Homo sapiens, BT-474, 144 h, read-out: In Vitro Cellular Activity IC50 BT474
Procedure: (§1) BT474, HCT-116, LoVo and MCF-7 were maintained under 7% CO2 in RPMI 1640 medium supplemented with 10% fetal bovine serum and 50 µg/ml gentamicin.
(§2) Cells were plated in 96-well microtiter dishes (12000 cells/well for BT474, 4000 cells/well for HCT-116, 6000 cells/well for LoVo and 6000 cells/well for MCF-7) in RPMI 1640 medium containing 5% fetal bovine serum and 50 µg/ml gentamicin. The cells were allowed to incubate overnight at 37° C., 7% CO2. Compound dilutions were prepared using the same medium. HCT-116, LoVo and MCF-7 cells were cultured for three days and BT474 cells were cultured for 6 days, in the presence of each compound dilution. Untreated cells were included as controls. The percentage of surviving cells was determined using a protein binding dye (sulforhodamineB, SRB) assay. Cellular protein was precipitated in each well by the addition of 0.05 ml of 50% cold trichloroacetic acid (TCA). After 1 hour, the plates were washed extensively in dH2O and dried. The sulforhodamineB dye solution (0.08 mL of 0.4% SRB in 1% acetic acid) was added to each well, kept at room temperature for ten minutes, then washed in 1% acetic acid and dried. The dye was dissolved in 10 mM Tris-HCl (150 uL) and the absorbency read at 540 nm.

HCT-116 = experiment: Cytotoxicity assay (SRB), HCT-116; type: cell-based; settings: Homo sapiens, HCT-116, 72 h, read-out: In Vitro Cellular Activity IC50 HCT116
Procedure: as §1, §2

LoVo = experiment: Cytotoxicity assay (SRB), LoVo; type: cell-based; settings: Homo sapiens, LoVo, 72 h, read-out: In Vitro Cellular Activity IC50 LOVO
Procedure: as §1, §2

MCF-7 = experiment: Cytotoxicity assay (SRB), MCF-7; type: cell-based; settings: Homo sapiens, MCF7, 72 h, read-out: In Vitro Cellular Activity IC50 MCF-7
Procedure: as §1, §2

cyclin D1/cdk 4 enzyme = target: T1, cyclin D1/cdk 4 enzyme (Homo sapiens, UniProt P11802); experiment: CDK4 ELISA kinase assay (phospho-Rb ser 795 detection); type: biochemical; settings: In Vitro Enzyme Assay, cyclin D1/cdk 4, read-out: CDK4 IC50
T1 construct: made in house; host or cells: Sf9 insect cells, recombinant baculovirus
Procedure, shortened: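 Partially purified Sf9-expressed cyclin D1/CDK4, cyclin E/CDK2 or cyclin B/CDK1 phosphorylated plate-bound GST-Rb C-terminal fragment with 200 μM ATP at 30° C for 1 h.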

T1 sequence (P11802 whole entry, species assumed): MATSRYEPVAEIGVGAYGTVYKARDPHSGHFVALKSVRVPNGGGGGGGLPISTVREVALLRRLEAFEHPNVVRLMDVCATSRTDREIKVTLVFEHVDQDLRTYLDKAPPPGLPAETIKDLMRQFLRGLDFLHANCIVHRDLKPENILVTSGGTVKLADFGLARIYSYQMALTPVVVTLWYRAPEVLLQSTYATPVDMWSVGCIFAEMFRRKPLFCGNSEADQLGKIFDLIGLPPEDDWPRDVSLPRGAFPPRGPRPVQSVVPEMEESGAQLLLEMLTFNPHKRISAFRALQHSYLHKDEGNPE
T1 sequence (P24385 whole entry partner, species assumed): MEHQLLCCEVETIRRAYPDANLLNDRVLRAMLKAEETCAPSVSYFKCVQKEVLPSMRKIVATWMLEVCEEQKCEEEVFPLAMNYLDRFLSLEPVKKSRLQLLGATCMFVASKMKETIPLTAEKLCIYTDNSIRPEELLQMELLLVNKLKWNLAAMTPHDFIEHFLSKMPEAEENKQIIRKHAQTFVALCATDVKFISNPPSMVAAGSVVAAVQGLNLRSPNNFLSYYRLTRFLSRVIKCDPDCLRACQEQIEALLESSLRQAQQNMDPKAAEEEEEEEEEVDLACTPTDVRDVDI

| SMILES | IC50 (BT474; BT474 cells, 6 days, SRB) [µM] | IC50 (HCT-116; HCT116 cells, 3 days, SRB) [µM] | IC50 (LoVo; LoVo cells, 3 days, SRB) [µM] | IC50 (MCF-7; MCF-7 cells, 3 days, SRB) [µM] | other results |
| --- | --- | --- | --- | --- | --- |
| CCOP(=O)(OCC)c1ccc2c(c1)/C(=C/Nc1ccc(N3CCN(C)CC3)cc1)C(=O)NC2=O [Example 284, Diethyl [(4Z)-4-({[4-(4-methylpiperazin-1-yl)phenyl]amino}methylene)-1,3-dioxo-1,2,3,4-tetrahydroisoquinolin-6-yl]phosphonate] |  |  |  |  | IC50 (BT474): > 50 µM; IC50 (HCT-116): 20 µM; IC50 (LoVo): 25 µM; IC50 (MCF-7): 12 µM |
| CC(C)(C)OC(=O)N1CCN(c2ccc(N/C=C3\C(=O)NC(=O)c4ccc(Br)cc43)cc2)CC1 [Example 294, tert-Butyl 4-(4-{[(Z)-(6-bromo-1,3-dioxo-2,3-dihydroisoquinolin-4(1H)-ylidene)methyl]amino}phenyl)piperazine-1-carboxylate] |  |  |  |  | IC50 (BT474; BT474 cells, SRB, 6 days): 49 µM; IC50 (HCT-116; HCT116 cells, SRB, three days): 9 µM; IC50 (LoVo; LoVo cells, SRB, three days): > 50 µM; IC50 (MCF-7; MCF-7 cells, SRB, three days): 24 µM |
| O=C1NC(=O)c2ccc(Br)cc2/C1=C/NCc1ccc(NC(=O)C(Cl)Cl)cc1 [Example 302, N-[4-({[(Z)-(6-Bromo-1,3-dioxo-2,3-dihydroisoquinolin-4(1H)-ylidene)methyl]amino}methyl)phenyl]-2,2-dichloroacetamide] |  |  |  |  | IC50 (BT474; BT474 cells, SRB, 6 days): 0.56 µM; IC50 (HCT-116; HCT116 cells, SRB, three days): 0.55 µM; IC50 (LoVo; LoVo cells, SRB, three days): 0.59 µM; IC50 (MCF-7; MCF-7 cells, SRB, three days): 1.2 µM |
| O=C1NC(=O)c2ccc(Br)cc2C1=CNc1ccc(-c2ccncc2)cc1 [Example 329, 6-Bromo-4-[(4-pyridin-4-yl-phenylamino)-methylene]-4H-isoquinoline-1,3-dione] |  |  |  |  | IC50 (BT474; BT474 cells, SRB, 6 days): 18.5 µM; IC50 (HCT-116; HCT116 cells, SRB, three days): 4.7 µM; IC50 (LoVo; LoVo cells, SRB, three days): 30 µM; IC50 (MCF-7; MCF-7 cells, SRB, three days): 14 µM |
| CC(C)(C)OC(=O)N1CCN(c2ccc(N/C=C3\C(=O)NC(=O)c4ccc(I)cc43)cc2)CC1 [Example 377, tert-Butyl 4-(4-{[(Z)-(6-iodo-1,3-dioxo-2,3-dihydroisoquinolin-4(1H)-ylidene)methyl]amino}phenyl)piperazine-1-carboxylate] |  |  |  |  | IC50 (BT474; BT474 cells, SRB, 6 days): > 50 µM; IC50 (HCT-116; HCT116 cells, SRB, three days): 11 µM; IC50 (LoVo; LoVo cells, SRB, three days): > 50 µM; IC50 (MCF-7; MCF-7 cells, SRB, three days): > 50 µM |
| O=C1NC(=O)c2ccc(I)cc2/C1=C/Nc1ccc(C2=NCCC2)cc1 [Example 403, 4-{[4-(4,5-Dihydro-3H-pyrrol-2-yl)-phenylamino]-methylene}-6-iodo-4H-isoquinoline-1,3-dione] | 40 | 41.5 | > 50 | > 50 |  |
| CC(C)(C)OC(=O)N1CCN(c2ccc(N/C=C3\C(=O)NC(=O)c4ccc(I)cc43)cn2)CC1 [Example 409, tert-Butyl 4-(5-{[(Z)-(6-iodo-1,3-dioxo-2,3-dihydroisoquinolin-4(1H)-ylidene)methyl]amino}pyridin-2-yl)piperazine-1-carboxylate] | 41.6 | 25.6 | 6.4 | 36.6 |  |
| CN1CCN(c2ccc(N/C=C3\C(=O)NC(C)(C)c4ccc(Br)cc43)cc2)CC1 [Example 452, 6-Bromo-1,1-dimethyl-4-{[4-(4-methyl-piperazin-1-yl)-phenylamino]-methylene}-1,4-dihydro-2H-isoquinolin-3-one] | 9.3 | 3.1 | 1.5 | 3.3 |  |
| CN1CCN(c2ccc(N/C=C3\C(=O)NC(C)(C)c4ccc(-c5ccoc5)cc43)cc2)CC1 [Example 458, 6-Furan-3-yl-1,1-dimethyl-4-{[4-(4-methyl-piperazin-1-yl)-phenylamino]-methylene}-1,4-dihydro-2H-isoquinolin-3-one] | 3.5 | 2.7 | 1.2 | 4.2 |  |
| CC(C)(C)OC(=O)N1CCCC1c1ccc(N/C=C2\C(=O)NC(=O)c3ccc(I)cc32)cc1 (stereo not shown) [Example 461, 2-{4-[(6-Iodo-1,3-dioxo-2,3-dihydro-1H-isoquinolin-4-ylidenemethyl)-amino]-phenyl}-pyrrolidine-1-carboxylic acid tert-butyl ester] | 7.7 | 22.8 | 24.1 | 23.3 |  |
| COc1cnc(CN/C=C2\C(=O)NC(=O)c3ccc(I)cc32)nc1O [Example 479, 4-{[(4-Hydroxy-5-methoxy-pyrimidin-2-ylmethyl)-amino]-methylene}-6-iodo-4H-isoquinoline-1,3-dione] | 43 | > 50 | > 50 | > 50 |  |
| O=C1NC(=O)c2ccc(I)cc2/C1=C/NCc1ccc(-c2ccccn2)c(O)c1 [Example 509, 4-[(3-Hydroxy-4-pyridin-2-yl-benzylamino)-methylene]-6-iodo-4H-isoquinoline-1,3-dione] | 0.13 | 0.25 | 0.19 | 0.54 |  |
| O=C1NC(=O)c2ccc(I)cc2/C1=C/NCc1ccc(-c2ccncc2)c(O)c1 [Example 511, 4-[(3-Hydroxy-4-pyridin-4-yl-benzylamino)-methylene]-6-iodo-4H-isoquinoline-1,3-dione] | 2.5 | 2.3 | 2.5 | 1.5 |  |
| N#CCc1ccc(NC=C2C(=O)NC(=O)c3ccc(-c4cc5ccccc5o4)cc32)cc1 [Example 626, {4-[(6-Benzofuran-2-yl-1,3-dioxo-2,3-dihydro-1H-isoquinolin-4-ylidenemethyl)-amino]-phenyl}-acetonitrile] | > 50 | > 50 | > 50 | 34.1 | IC50 (cyclin D1/cdk 4 enzyme): 3.7 µM |
| N#CCc1ccc(NC=C2C(=O)NC(=O)c3ccc(-c4cc5ccccc5s4)cc32)cc1 [Example 627, {4-[(6-Benzo[b]thiophen-2-yl-1,3-dioxo-2,3-dihydro-1H-isoquinolin-4-ylidenemethyl)-amino]-phenyl}-acetonitrile] | 4.3 | > 50 | > 50 | 7.3 | IC50 (cyclin D1/cdk 4 enzyme): 10.4 µM |
| O=C1NCc2cc(Cl)ccc2C1=CNc1cccc(O)c1 [Example 856, 7-Chloro-4-[(3-hydroxy-phenylamino)-methylene]-1,4-dihydro-2H-isoquinolin-3-one] | 5.6 | 12.2 | 13.5 | 3.8 |  |
| Cc1ccc2c(c1)CNC(=O)C2=CNc1ccc(N2CCOCC2)cc1 [Example 858, 7-Methyl-4-[(4-morpholin-4-yl-phenylamino)-methylene]-1,4-dihydro-2H-isoquinolin-3-one] | 34.3 | 37.7 | 39 | 34.7 |  |
| O=C1NCc2ccccc2C1=CNc1cccc(O)c1 [Example 859, 4-[(3-Hydroxy-phenylamino)-methylene]-1,4-dihydro-2H-isoquinolin-3-one] | 31.2 | 40.4 | 40 | 20.6 |  |
| O=C1NCc2ccccc2C1=CNc1ccc(N2CCCCC2)cc1 [Example 860, 4-[(4-Piperidin-1-yl-phenylamino)-methylene]-1,4-dihydro-2H-isoquinolin-3-one] | 35.2 | 33 | 36.1 | 40 |  |
| COC(=O)Oc1cc(CN/C=C2\C(=O)NC(=O)c3ccc(Br)cc32)ccc1OC [compound 83, 5-({[(Z)-(6-Bromo-1,3-dioxo-2,3-dihydroisoquinolin-4(1H)-ylidene)methyl]amino}methyl)-2-methoxyphenyl methyl carbonate] |  |  |  |  | IC50 (BT474; BT474 cells, SRB, 6 days): 3.2 µM; IC50 (HCT-116; HCT116 cells, SRB, three days): 4.5 µM; IC50 (LoVo; LoVo cells, SRB, three days): 2.6 µM; IC50 (MCF-7; MCF-7 cells, SRB, three days): 29.9 µM |
